This is an account of results in patent US6043228A, “O^6 -substituted guanine derivatives, a process for their preparation and their use in treating tumor cells” (Cancer Research Campaign Technology Limited, priority 1993, dated 2000).

For data set [1], the target named is T1, recombinant human ATase (Homo sapiens, UniProt P16455).
T1 construct: made in house
T1 sequence (P16455 1-207): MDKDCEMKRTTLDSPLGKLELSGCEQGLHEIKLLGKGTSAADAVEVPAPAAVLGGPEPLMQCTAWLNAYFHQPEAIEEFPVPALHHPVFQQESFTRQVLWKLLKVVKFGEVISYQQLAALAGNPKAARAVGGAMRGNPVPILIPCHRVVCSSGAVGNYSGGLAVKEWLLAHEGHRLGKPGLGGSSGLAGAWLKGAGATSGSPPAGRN
The data set is described as follows: In vitro ATase inactivation assay (incubation with inactivators and ATase assay). Particulars: for ATase inactivation in vitro, result in words: recombinant human ATase, standard conditions. Format: biochemical. As for the experimental part:
The cDNA cloning and overexpression of the human ATase has been reported previously^23. Purification of the recombinant proteins was achieved either by affinity chromatography through a DNA-cellulose column as described by Wilkinson et al.,^25, 26 or by DEAE-cellulose ion-exchange chromatography. For the latter, the ATase protein was partially purified by ammonium sulphate precipitation (30-60%) and dialysed against 10 mM Tris-HCl pH 7.5, 1 mM DTT, 2 mM EDTA, 10% glycerol, before loading on a DEAE-cellulose column. The ATase was then eluted with a 0-0.1 M NaCl gradient.
Compounds to be tested were dissolved in DMSO to a final concentration of 10 mM and diluted just before use in buffer I containing 1 mg/ml bovine serum albumin (IBSA). Recombinant ATase was diluted in IBSA and titrated in order that the reaction be conducted under ATase, and not substrate, limiting conditions. […] Following acid hydrolysis of the DNA as previously described^21 the [^3 H]-methylated protein was recovered and quantitated by liquid scintillation counting. Samples were typically assayed in duplicate and experiments repeated several times. I50 is the concentration of inactivator required to produce a 50% reduction in ATase activity.

Data set [2] has as its system Raji cells. The data set is described as follows: Sensitization of Raji cells to BCNU (XTT assay). Format: cell-based, human. Particulars: 1.0 μM inactivator (FIG. 2). The method, then:
(§1) Following a 2 hour incubation at 37° C., medium containing either increasing doses of BCNU, temozolomide or equivalent vehicle was added and the cells allowed to grow for 6 days. At this time XTT solution was added and the cells incubated for a further 4 hours at 37° C. The resulting red/orange formazan reaction product was quantified by measuring absorption at 450 nm on a microtitre platereader.

A short description of data set [3]: Toxicity of inactivators in combination with BCNU in DBA2 mice. As to conditions: mouse, in vivo, ip, 60 mg/kg, single i.p. dose, read-out: % SURVIVAL AFTER 14 DAYS. The class given is in vivo, mouse. The source says: All agents were given as a single i.p. dose
The subject of data set [4] is nude mice. Nature of the data set: Xenograft study: survival of nude mice given inactivator plus BCNU. As to conditions: in combination with BCNU (FIGS. 9-13). The source says: BALB-C derived athymic male mice (nu/nu athymic) weighing between 25-35 g were obtained from the in-house breeding colony of the Paterson Institute for Cancer Research, Christie Hospital NHS Trust, Wilmslow Road, Manchester M20 9BX, England (ASU mice). The animals were housed in a sterile environment until required for experiments. In one experiment mice were obtained from Harlan-Olac, Harlan UK Limited, Shaw's Farm, Blackthorn, Bicester, Oxon. OX6 OPT, England (OLAC mice).

For data set [5], the system named is human bone marrow granulocyte macrophage colony forming cells. Nature of the data set: Sensitization of bone marrow cells to temozolomide (GM-CFC assay). The class given is cell-based. The source says: For the granulocyte/macrophage colony-forming cell (GM-CFC) assay primary human bone marrow samples were obtained from patients undergoing cardiothoracic surgery. […] The colonies represented precursor cells of the granulocyte/macrophage lineage (huGM-CFC). Survival was expressed as a % of the number of colonies at zero dose temozolomide.

Data set [6] deals with T2, ATase in human melanoma xenografts (Homo sapiens, UniProt P16455).
T2 construct: A375M cells are human melanoma cells from which the xenografts described below were established; endogenous in cells; host or cells: A375M xenograft grown in nude mice
T2 sequence (P16455 1-207): T1 sequence (P16455 1-207)
Nature of the data set: ATase activity in human melanoma (A375) xenografts grown in nude mice after inactivator. Format: in vivo. Particulars: single i.p. dose 30 or 60 mg/kg (FIG. 17). The method, then: Cells (10^6) in 100 μl of PBS were injected subcutaneously into the right-hand flank of 8-10 week old nu/nu athymic mice. These cells were allowed to develop into a tumour for 3-4 weeks for passaging into experimental animals. Tumour blocks measuring 2 mm×2 mm×2 mm were implanted subcutaneously on the right hand flank. These animals were ready for use in inactivator experiments in 7-10 days.
ATase substrate DNA was prepared by incubation of purified calf thymes DNA with N-[^3 H]-methyl-N-nitrosuourea (18.7 Ci/mmole, Amersham International). Cell or tissue extracts (see 4.4) were incubated with [^3 H]-methylated-DNA substrate (100 μl containing 6.7 μg of DNA and 100 fmol of O^6 -[^3 H]methylguanine) at 37° C. for 60 mins. Following acid hydrolysis of the DNA as precviously described^21the [^3 H]-methylated protein was recovered and quantitated by liquid scintillation counting.
Mice were treated with the inactivator as a suspension in corn oil by intraperitoneal injection (i.p.) or by oral gavage (p.o.) 60 mins prior to temozolomide (100 mg/kg in 20% DMSO in phosphate-buffered saline) which was always given by intraperitoneal injection: this schedule was repeated on days 1 to 5 inclusive. Controls received vehicle alone, inactivator alone or temozolomide alone.

Data set [7] has as its system Raji cells. The data set is described as follows: Sensitization of Raji cells to temozolomide (XTT assay). Format: cell-based, human. As to conditions: 0.1-5.0 μM inactivator (FIGS. 3, 4). As for the experimental part:
as §1
(Tetrazolium assays rely on reduction of a dye to a coloured formazan, in cell work by metabolically active cells.)

Setting [8] is: Table 9, pure recombinant ATase in vitro, read-out: I50 (μm).

“Also recorded” adds a separate entry of the source. Read-outs that look alike come from different tables or passages of the source.

For `CC(Oc1nc(N)nc2[nH]cnc12)c1ccccc1` (racemic) [B.4214, DL-0^6 -(α-methylbenzyl)guanine, reference compound], the “ATase inactivation in vitro, result in words” value (shortened to “ATase inactivation in vitro”) in data set [1] is given as “reduce greatly the inactivating activity; also recorded: did not inactivate ATase up to the highest concentration used”.
Same read-out and setting: the entry for `CC(Oc1nc(N)nc2[nH]cnc12)c1cccs1` (racemic) [B.4217, DL-0^6 -(α-methylthenyl)guanine] is “reduce greatly the inactivating activity; also recorded: did not inactivate ATase up to the highest concentration used”.
On to `Nc1nc(OCc2ccsc2)c2nc[nH]c2n1` [B.4206, 0^6-(3-thienylmethyl)guanine], for which the “ATase inactivation in vitro” value in data set [1] was “somewhat more effective than BeG; also recorded: I50 values lower than that of BeG”.
As to `Nc1nc(OCc2ccc3c(c2)OCO3)c2nc[nH]c2n1` [B.4212, 0^6 -piperonylguanine], the “ATase inactivation in vitro” value in data set [1] was “considerably better; also recorded: I50 values lower than that of BeG”.
Same read-out and setting: the entry for `Nc1nc(OCc2cc3ccccc3s2)c2nc[nH]c2n1` [B.4226, 0^6-(2-benzo[b]thienylmethyl)guanine] is “I50 values lower than that of BeG”.
Take `COc1ccccc1COc1nc(N)nc2[nH]cnc12` [B.4231, O^6-(2-methoxybenzyl)guanine, reference compound]: the IC50 in data set [1] (Table 4, 1 hour incubation with inactivator at 37° C., read-out: I50) is 60000 nM.
Turning to `Nc1nc(OCc2cc3ccccc3o2)c2nc[nH]c2n1` [B.4266, 0^6-(2-benzofuranylmethyl)guanine], the “ATase inactivation in vitro” value in data set [1] is “I50 values lower than that of BeG”.
On the same count and under the same terms, the entry for `Nc1nc(OCc2ccc(Br)s2)c2nc[nH]c2n1` [B.4269, 0^6-(5-bromothenyl)guanine] is “more efficient than the unsubstituted thenyl derivative B.4205; also recorded: I50 values lower than that of BeG”; for `N#Cc1ccc(COc2nc(N)nc3[nH]cnc23)o1` [B.4273, 0^6-(5-cyanofurfuryl)guanine] it is “I50 values lower than that of BeG”; for `Nc1nc(OCc2cncs2)c2nc[nH]c2n1` [B.4275, 0^6-(5-thiazolylmethyl)guanine] it is “I50 values lower than that of BeG”.
On to `Nc1nc(OCc2ccc(Cl)s2)c2nc[nH]c2n1` [B.4281, O^6-(5-chlorothenyl)guanine], for which, in data set [1] (setting [8]), the IC50 turned out to be 4 nM.
As for `N#Cc1ccc(COc2nc(N)nc3[nH]cnc23)s1` [B.4283, O^6-(5-cyanothenyl)guanine], in data set [1] (setting [8]), the IC50 is 5 nM.
On the same count and under the same terms, the figure for `C[S+]([O-])c1ccc(COc2nc(N)nc3[nH]cnc23)s1` (stereo not drawn) [B.4294, O^6-(5-methylsulphinylthenyl)guanine] is 30 nM.
On to `Nc1nc(OCc2cc(Cl)cs2)c2nc[nH]c2n1` [B.4298, O^6-(4-chlorothenyl)guanine], for which the IC50 in data set [1] (setting [8]) was 8 nM.
In the case of `COc1csc(COc2nc(N)nc3[nH]cnc23)c1` [B.4300, O^6-(4-methoxythenyl)guanine], the IC50 in data set [1] (setting [8]) worked out at 16.5 nM.
Same read-out and setting: the figure for `Nc1nc(OCc2csc(Br)c2)c2nc[nH]c2n1` [B.4313, O^6-(5-bromo-3-thienylmethyl)guanine] is 6.5 nM.
On to `N#Cc1csc(COc2nc(N)nc3[nH]cnc23)c1` [B.4317, O^6-(4-cyanothenyl)guanine], for which, in data set [1] (setting [8]), the IC50 is 2.8 nM. In data set [1], the “ATase inactivation in vitro” value is on record as “more efficient inactivator in vitro than its 5-cyano analogue B.4283 or the unsubstituted thenyl derivative B.4205”.
In the case of `Nc1nc(OCc2cc(Cl)c(Cl)s2)c2nc[nH]c2n1` [B.4318, O^6-(4,5-dichlorothenyl)guanine], the IC50 in data set [1] (setting [8]) is 15 nM.
The same measure, in the same setting: under `Nc1nc(OCc2ccnc(Cl)c2)c2nc[nH]c2n1` [B.4321, O^6-(2-chloro-4-picolyl)guanine] stands 40 nM; under `Nc1nc(OCc2ccc(Br)o2)c2nc[nH]c2n1` [B.4336, O^6-(5-bromofurfuryl)guanine], 20 nM.
With `Nc1nc(OCc2ccccc2)c2nc[nH]c2n1` [O^6 -benzylguanine, reference compound], the “sensitizing Raji cells to growth inhibitory effects of BCNU, in words” value in data set [2] is on record as “equally effective”. Moreover, the survival at 336 h was found to be 50% in data set [3] (inactivator 60 mg/kg + 10 mg/kg BCNU), 0% in data set [3] (inactivator 60 mg/kg + 15 mg/kg BCNU (footnote *)) and 33% in data set [3] (inactivator 60 mg/kg + 20 mg/kg BCNU). For the same molecule, the “death of treated animals” value in data set [4] is given as “up to 70%”. Further, the “sensitization of GM-CFC to cytotoxic effects of temozolomide, in words” value in data set [5] (four different patient samples, 10 μM (FIG. 23)) is reported as “sensitized”. The “sensitization of GM-CFCs to toxic effects of temozolomide, in words” value in data set [5] (three human bone marrow samples (FIG. 14)) is listed as “sensitised”. In addition, in data set [6], the “inactivation of ATase in human melanoma xenografts, in words” value was “inactivated”. Further, in data set [7], the “dose response of Raji sensitization to temozolomide, in words” value was “clear dose response”.
